In US9238626B2 (priority 2012, dated 2016):
Where a name gives a salt, the structure may show the parent alone. Read-outs that look alike come from different tables or passages of the source.

Legend:
[1] = system: human recombinant AChE-induced Aβ1-40 aggregation; assay: AChE-induced Aβ1-40 aggregation inhibition assay (thioflavin T); details: inhibitor 100 μM
Protocol: Aβ1-40, supplied as trifluoroacetate salt, was purchased from Bachem AG (Germany). Aβ1-40 (2 mg mL^−1) was dissolved in HFIP, lyophilized, and then resolubilized in DMSO to get a 2.3 mM Aβ1-40 solution. 1 mM Solutions of tested inhibitors were prepared by dissolution in MeOH.
Aliquots of 2 μL Aβ1-40 peptide were incubated for 24 h at room temperature in 0.215 M sodium phosphate buffer (pH 8.0) at a final concentration of 230 μM. […] The final volume of each vial was 20 μL. Each assay was run in duplicate. To quantify amyloid fibril formation, the thioflavin T fluorescence method was then applied (cf. H. Naiki et al., “Kinetic Analysis of Amyloid Fibril Polymerization in Vitro”, Lab. Invest. 1991, vol. 65, pp. 104-110). The fluorescence intensities due to β-sheet conformation were monitored for 300 s at λem=490 nm (λexc=446 nm). The percent inhibition of the AChE-induced aggregation due to the presence of the tested compound was calculated by the following expression: 100−(IFi/IFo×100) where IFi and IFe are the fluorescence intensities obtained for Aβ plus AChE in the presence and in the absence of inhibitor, respectively, minus the fluorescence intensities due to the respective blanks.

[2] = biological target: Electrophorus electricus (ee) AChE (Electrophorus electricus (Electric eel) (Gymnotus electricus), UniProt O42275); assay: AChE inhibition assay (Ellman), eeAChE; assay type: biochemical
Chain of Electrophorus electricus (ee) AChE (O42275 whole entry, looked up): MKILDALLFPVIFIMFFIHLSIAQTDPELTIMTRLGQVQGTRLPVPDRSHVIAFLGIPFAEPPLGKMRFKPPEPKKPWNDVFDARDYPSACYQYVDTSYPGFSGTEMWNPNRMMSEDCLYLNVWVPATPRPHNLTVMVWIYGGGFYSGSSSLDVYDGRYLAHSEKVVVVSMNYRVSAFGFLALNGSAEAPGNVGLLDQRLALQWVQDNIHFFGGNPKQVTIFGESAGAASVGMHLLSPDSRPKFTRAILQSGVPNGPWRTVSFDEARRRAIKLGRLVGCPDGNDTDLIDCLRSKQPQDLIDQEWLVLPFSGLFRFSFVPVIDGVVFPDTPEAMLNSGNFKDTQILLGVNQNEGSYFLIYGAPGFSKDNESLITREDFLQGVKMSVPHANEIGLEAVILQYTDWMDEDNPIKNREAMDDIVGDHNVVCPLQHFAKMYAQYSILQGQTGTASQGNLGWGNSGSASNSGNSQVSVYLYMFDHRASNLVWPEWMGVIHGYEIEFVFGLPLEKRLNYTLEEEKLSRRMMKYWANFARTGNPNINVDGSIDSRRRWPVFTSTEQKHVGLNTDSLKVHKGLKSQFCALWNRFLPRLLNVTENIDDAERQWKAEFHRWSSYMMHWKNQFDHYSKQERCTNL
Protocol: AChE inhibitory activity of compounds (Ia)-(Ie) and (−)-(Ib) and (+)-(Ib) was evaluated spectrophotometrically at 25° C. by the method of Ellman et al., using recombinant human AChE (hAChE) and Electrophorus electricus (ee) AChE and acetylthiocholine iodide as substrate (cf. G. L. Ellman et al., “New and Rapid Colorimetric Determination of Acetylcholinesterase Activity” Biochem. Pharmacol. 1961, vol. 7, pp. 88-95). For eeAChE inhibitory activity determination, the reaction took place in a final volume of 300 μL of 0.1 M phosphate-buffered solution pH 8.0, containing 0.03 unit/mL of ee AChE and 333 μM 5,5′-dithiobis(2-nitrobenzoic) acid (DTNB) solution used to produce the yellow anion of 5-thio-2-nitrobenzoic acid. Inhibition curves were performed in duplicates using at least 10 increasing concentrations of inhibitor and preincubating at 37° C. for 20 min. One duplicate sample without inhibitor was always present to yield 100% of AChE activity. Then, substrate acetylthiocholine (450 μM) was added and the reaction was developed at 37° C. for 5 min. The color production was measured at 414 nm.
(§1) Results are expressed as mean±S.E.M. of at least 4 experiments performed in duplicate. DTNB, acetylthiocholine, butyrylthiocholine, and enzymes were purchased from Sigma.

human serum BChE = human serum BChE (Homo sapiens (Human), UniProt P06276); assay: BChE inhibition assay (Ellman); assay type: biochemical
Chain of human serum BChE (P06276 29-602): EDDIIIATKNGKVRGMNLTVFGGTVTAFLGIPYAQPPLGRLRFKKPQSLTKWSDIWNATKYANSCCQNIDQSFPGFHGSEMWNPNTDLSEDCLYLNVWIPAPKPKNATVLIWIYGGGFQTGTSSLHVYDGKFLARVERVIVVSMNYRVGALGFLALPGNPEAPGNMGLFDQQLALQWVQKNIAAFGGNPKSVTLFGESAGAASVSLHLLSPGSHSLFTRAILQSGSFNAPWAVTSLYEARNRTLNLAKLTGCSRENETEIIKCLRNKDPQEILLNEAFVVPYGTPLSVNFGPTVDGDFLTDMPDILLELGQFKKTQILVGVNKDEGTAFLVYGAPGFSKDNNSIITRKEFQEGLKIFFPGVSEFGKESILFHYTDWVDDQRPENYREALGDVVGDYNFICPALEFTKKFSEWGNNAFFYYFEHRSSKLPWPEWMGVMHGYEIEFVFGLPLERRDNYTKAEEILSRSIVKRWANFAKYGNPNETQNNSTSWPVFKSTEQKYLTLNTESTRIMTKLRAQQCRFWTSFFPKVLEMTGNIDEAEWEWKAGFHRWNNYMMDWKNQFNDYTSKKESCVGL
Protocol: BChE inhibitory activity determinations were carried out similarly by the method of Ellman et al., using 0.02 unit/mL of human serum BChE and 300 μM butyrylthiocholine, instead of AChE and acetylthiocholine, in a final volume of 300 μL.
as §1

β-Secretase (BACE-1) = β-Secretase (BACE-1) (Homo sapiens (Human), UniProt P56817); assay: β-Secretase (BACE-1) inhibition assay; assay type: biochemical
Chain of β-Secretase (BACE-1) (P56817 46-501): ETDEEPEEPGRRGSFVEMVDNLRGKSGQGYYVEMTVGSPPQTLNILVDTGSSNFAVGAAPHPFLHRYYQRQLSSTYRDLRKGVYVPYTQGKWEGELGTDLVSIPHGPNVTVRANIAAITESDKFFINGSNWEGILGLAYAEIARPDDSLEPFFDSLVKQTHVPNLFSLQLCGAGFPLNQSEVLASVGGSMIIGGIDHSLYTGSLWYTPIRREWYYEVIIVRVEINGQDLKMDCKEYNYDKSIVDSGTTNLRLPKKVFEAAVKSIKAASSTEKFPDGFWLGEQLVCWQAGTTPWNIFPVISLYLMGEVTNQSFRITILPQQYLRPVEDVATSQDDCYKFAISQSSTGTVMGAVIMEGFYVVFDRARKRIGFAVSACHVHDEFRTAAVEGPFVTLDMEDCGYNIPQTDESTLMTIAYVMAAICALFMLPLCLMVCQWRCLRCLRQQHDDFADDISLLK
Protocol: β-Secretase (BACE-1, Sigma) inhibition studies were performed by employing a peptide mimicking APP sequence as substrate (methoxycoumarin-[…]dinitrophenyl, M-2420, Bachem). The following procedure was employed: 5 μL of test compound (or DMSO, if preparing a control well) were pre-incubated with 175 μL of the enzyme (in 20 mM sodium acetate containing CHAPS 0.1% w/v) for 1 h at room temperature. The substrate (3 μM, final concentration) was then added and left to react for 15 min. The fluorescence signal was read at λem=405 nm (λexc=320 nm). […] The fluorescence intensities with and without inhibitor were compared and the percent inhibition due to the presence of test compounds was calculated. The background signal was measured in control wells containing all the reagents, except BACE-1 and subtracted. […] Inhibition curves were obtained by plotting the % inhibition versus the logarithm of inhibitor concentration in the assay sample. The linear regression parameters were determined and the IC50 extrapolated (GraphPad Prism 4.0, GraphPad Software Inc.).

Aβ1-42 = Aβ1-42 (Homo sapiens, UniProt P05067); assay: Aβ1-42 self-aggregation inhibition assay (thioflavin T); assay type: biochemical; details: inhibitor 10 μM, [Aβ]/[I]=5/1
Protocol: As reported in a previously published protocol (cf. M. Bartolini et al., “Insight into the Kinetic of Amyloid Beta (1-42) Peptide Self-Aggregation: Elucidation of Inhibitors' Mechanism of Action. ChemBioChem 2007, vol. 8, pp. 2152-2161), HFIP pretreated Aβ1-42 samples (Bachem AG, Switzerland) were solubilized with a CH3CN/0.3 mM Na2CO3250 mM NaOH (48.4:48.4:3.2) mixture to obtain a 500 μM solution. Experiments were performed by incubating the peptide in 10 mM phosphate buffer (pH=8.0) containing 10 mM NaCl, at 30° C. for 24 h (final Aβ concentration 50 μM) with and without inhibitor (10 μM, Aβ/inhibitor=5/1). Blanks containing the tested inhibitors were also prepared and tested.

With `CC1=C[C@@H]2Cc3nc4cc(Cl)ccc4c(N)c3[C@H](C1)C2.Cl` [(−)-Huprine Y•HCl, huprine Y, reference compound] the “AChE-induced Aβ1-40 aggregation (%)” value [1] was 24.7 ± 1.3%, the IC50 ([2]; read-out: IC50 eeAChE) was 0.06 ± 0.01 nM and the IC50 (human serum BChE; read-out: IC50 hBChE) was 222 ± 17 nM. The “BACE-1 % inhibition at 5 μM” value (β-Secretase (BACE-1); 5 μM) was “(14.0 ± 0.1% at”, the IC50 (β-Secretase (BACE-1); read-out: BACE-1 IC50) was greater than 5000 nM and the “Aβ1-42 self-induced aggregation (%)” value (Aβ1-42) was 11.5 ± 5.2%.

For `CC1=C[C@@H]2Cc3nc4cc(Cl)ccc4c(N)c3[C@H](C1)C2.Cl` [(+)-Huprine Y•HCl, huprine Y, reference compound], the “AChE-induced Aβ1-40 aggregation (%)” value [1] was 9.1 ± 3.6%, the IC50 ([2]; read-out: IC50 eeAChE) was 373 ± 50 nM and the IC50 (human serum BChE; read-out: IC50 hBChE) was 170 ± 17 nM. The IC50 (β-Secretase (BACE-1); read-out: BACE-1 IC50) was greater than 5000 nM and the “Aβ1-42 self-induced aggregation (%)” value (Aβ1-42) was 13.2 ± 1.9%.

In the case of `CC1=CC2Cc3nc4cc(Cl)ccc4c(NCCCCCCCCCCCNC(=O)c4cc(O)c5c(c4)C(=O)c4cccc(O)c4C5=O)c3C(C1)C2` (racemic) [(±)-(Id)•HCl, (±)-N-{11-[(3-chloro-6,7,10,11-tetrahydro-9-methyl-7,11-methanocycloocta[b]quinolin-12-yl)amino]undecyl}-9,10-dihydro-4,5-dihydroxy-9,10-dioxoanthracene-2-carboxamide], the “AChE-induced Aβ1-40 aggregation (%)” value [1] is reported as 38.2 ± 2.6%, the IC50 ([2]; read-out: IC50 eeAChE) is reported as 16.3 ± 2.3 nM and the IC50 (human serum BChE) is reported as 645 ± 67 nM. For the same molecule, the IC50 (β-Secretase (BACE-1)) was 1200 ± 100 nM and the “Aβ1-42 self-induced aggregation (%)” value (Aβ1-42) was 35.3 ± 4.0%.

For `CC1=CC2Cc3nc4cc(Cl)ccc4c(NCc4ccc(CNC(=O)c5cc(O)c6c(c5)C(=O)c5cccc(O)c5C6=O)cc4)c3C(C1)C2` (racemic) [(±)-(Ie)•HCl, (±)-N-{4-{[(3-chloro-6,7,10,11-tetrahydro-9-methyl-7,11-methanocycloocta[b]quinolin-12-yl)amino]methyl}benzyl}-9,10-dihydro-4,5-dihydroxy-9,10-dioxoanthracene-2-carboxamide], the “AChE-induced Aβ1-40 aggregation (%)” value [1] was 35.2 ± 1.8%, the IC50 ([2]; read-out: IC50 eeAChE) was 60 ± 7.5 nM and the IC50 (human serum BChE) was 510 ± 20 nM. For the same molecule, the IC50 (β-Secretase (BACE-1)) was 2020 ± 400 nM and the “Aβ1-42 self-induced aggregation (%)” value (Aβ1-42) was 32.4 ± 3.6%.

For `CC1=CC2Cc3nc4cc(Cl)ccc4c(NCCCCCCCCCCNC(=O)c4cc(O)c5c(c4)C(=O)c4cccc(O)c4C5=O)c3C(C1)C2` (racemic) [(±)-(Ic)•HCl, (±)-N-{10-[(3-chloro-6,7,10,11-tetrahydro-9-methyl-7,11-methanocycloocta[b]quinolin-12-yl)amino]decyl}-9,10-dihydro-4,5-dihydroxy-9,10-dioxoanthracene-2-carboxamide], the “AChE-induced Aβ1-40 aggregation (%)” value [1] was 29.2 ± 2.4%, the IC50 [2] was 46.7 ± 2.4 nM and the IC50 (human serum BChE) was 1100 ± 40 nM. For the same molecule, the IC50 (β-Secretase (BACE-1)) was 1190 ± 200 nM and the “Aβ1-42 self-induced aggregation (%)” value (Aβ1-42) was 40.9 ± 4.4%.

`O=C(O)c1cc(O)c2c(c1)C(=O)c1cccc(O)c1C2=O` [Rhein, rhein, reference compound] showed an IC50 [2] of 637 ± 87 nM and an IC50 (human serum BChE; read-out: IC50 hBChE) of 17000 ± 4220 nM.

For `CC1=CC2Cc3nc4cc(Cl)ccc4c(NCCCCCCCCCNC(=O)c4cc(O)c5c(c4)C(=O)c4cccc(O)c4C5=O)c3C(C1)C2` (racemic) [(±)-(Ib)•HCl, (±)-N-{9-[(3-chloro-6,7,10,11-tetrahydro-9-methyl-7,11-methanocycloocta[b]quinolin-12-yl)amino]nonyl}-9,10-dihydro-4,5-dihydroxy-9,10-dioxoanthracene-2-carboxamide], the “AChE-induced Aβ1-40 aggregation (%)” value [1] was 48.7 ± 8.4%, the IC50 [2] was 32.6 ± 1.7 nM and the IC50 (β-Secretase (BACE-1)) was 120 ± 100 nM. For the same molecule, the “Aβ1-42 self-induced aggregation (%)” value (Aβ1-42) was 38.0 ± 4.6%.

`CC1=CC2Cc3nc4cc(Cl)ccc4c(NCCCCCCCCNC(=O)c4cc(O)c5c(c4)C(=O)c4cccc(O)c4C5=O)c3C(C1)C2` (racemic) [(±)-(Ia)•HCl, (±)-N-{8-[(3-chloro-6,7,10,11-tetrahydro-9-methyl-7,11-methanocycloocta[b]quinolin-12-yl)amino]octyl}-9,10-dihydro-4,5-dihydroxy-9,10-dioxoanthracene-2-carboxamide] was tested, and the “AChE-induced Aβ1-40 aggregation (%)” value [1] was 44.7 ± 8.4%, the IC50 [2] was 88.6 ± 6.7 nM and the IC50 (human serum BChE) was 350 ± 17 nM. For the same molecule, the IC50 (β-Secretase (BACE-1)) was 980 ± 200 nM and the “Aβ1-42 self-induced aggregation (%)” value (Aβ1-42) was 33.1 ± 5.4%.

In the case of “huprine Y [(±)-Huprine Y•HCl, reference compound]”, the “AChE-induced Aβ1-40 aggregation (%)” value [1] is reported as 17.1 ± 4.5% and the IC50 ([2]; read-out: IC50 eeAChE) is reported as 0.08 ± 0.01 nM.
